Reference: patent US20150141381A1, “TETRACYCLINE COMPOUNDS HAVING TARGET THERAPEUTIC ACTIVITIES” (Paratek Pharmaceuticals, Inc., priority 2001, published 2015)
Where two headings read alike, the source gives them in different places.

Assays:
S. aureus RN450 = test: In Vitro Anti-Bacterial Activity Assay (MIC), gram positive; format: cell-based; settings: Staphylococcus aureus, RN450, 18 h
E. coli mL308 225 = test: In Vitro Anti-Bacterial Activity Assay (MIC), gram negative; format: cell-based; settings: Escherichia coli, ML308225, 18 h
[1] = read-out: Antibiotic Activity Gram + (MIC)
[2] = read-out: Antibiotic Activity Gram − (MIC)
[3] = gram positive bacteria, read-out: Antibiotic Activity Gram + (MIC)
[4] = gram negative bacteria, read-out: Antibiotic Activity Gram − (MIC)
[5] = read-out: Antibiotic Activity Gram +
[6] = read-out: Antibiotic Activity Gram −
[7] = MIC class, Table 3, read-out: Antibiotic Activity Gram +
[8] = MIC class, Table 3, read-out: Antibiotic Activity Gram −

SMILES | MIC (S. aureus RN450; [7]) [µg/mL] | MIC (E. coli mL308 225; [8]) [µg/mL] | further results
CCOP(=O)(OCC)C(Nc1ccc2c(c1O)C(=O)C1=C(O)[C@]3(O)C(=O)C(C(N)=O)=C(O)[C@@H](N(C)C)[C@@H]3[C@@H](O)[C@@H]1[C@H]2C)c1ccccc1 (stereo partly drawn) | – | – | MIC (S. aureus RN450; read-out: Gram+ activity): < 4 µg/mL; MIC (E. coli mL308 225; read-out: Gram− activity): > 4 µg/mL
CCOP(=O)(OCC)C(Nc1ccc2c(c1O)C(=O)C1=C(O)[C@]3(O)C(=O)C(C(N)=O)=C(O)[C@@H](N(C)C)[C@@H]3[C@@H](O)[C@@H]1[C@H]2C)c1ccc(OC)cc1 (stereo partly drawn) | – | – | MIC (S. aureus RN450; read-out: Gram+ activity): < 4 µg/mL; MIC (E. coli mL308 225; read-out: Gram− activity): > 4 µg/mL
CN(C)[C@@H]1C(O)=C(C(N)=O)C(=O)[C@@]2(O)C(O)=C3C(=O)c4c(ccc(NC(=O)Oc5ccc(F)cc5)c4O)C[C@H]3C[C@@H]12 | – | – | MIC (S. aureus RN450; read-out: Gram+ activity): > 4 µg/mL; MIC (E. coli mL308 225; read-out: Gram− activity): > 4 µg/mL
CN(C)c1cc(NC(=O)Oc2ccc(O)cc2)c(O)c2c1C[C@H]1C[C@H]3[C@H](N(C)C)C(O)=C(C(N)=O)C(=O)[C@@]3(O)C(O)=C1C2=O | – | – | MIC (S. aureus RN450; [1]): > 4 µg/mL; MIC (E. coli mL308 225; [2]): > 4 µg/mL
CCc1cc(N)c(O)c2c1C[C@H]1C[C@H]3[C@H](N(C)C)C(O)=C(C(N)=O)C(=O)[C@@]3(O)C(O)=C1C2=O | – | – | MIC (S. aureus RN450; [3]): < 4 µg/mL; MIC (E. coli mL308 225; [4]): < 4 µg/mL
CC(=O)Nc1ccc2c(c1O)C(=O)C1=C(O)[C@]3(O)C(=O)C(C(N)=O)=C(O)[C@@H](N(C)C)[C@@H]3C[C@@H]1C2 | – | – | MIC (S. aureus RN450; [3]): < 4 µg/mL; MIC (E. coli mL308 225; [4]): > 4 µg/mL
CN(C)[C@@H]1C(O)=C(C(N)=O)C(=O)[C@@]2(O)C(O)=C3C(=O)c4c(O)ccc(CNC(=O)c5cc(O)ncn5)c4C[C@H]3C[C@@H]12 | – | – | MIC (S. aureus RN450; [3]): < 4 µg/mL; MIC (E. coli mL308 225; [4]): > 4 µg/mL
CN1CCC(Nc2ccc3c(c2O)C(=O)C2=C(O)[C@]4(O)C(=O)C(C(N)=O)=C(O)[C@@H](N(C)C)[C@@H]4C[C@@H]2C3)CC1 | – | – | MIC (S. aureus RN450; [3]): < 4 µg/mL; MIC (E. coli mL308 225; [4]): > 4 µg/mL
CN(C)[C@@H]1C(O)=C(C(N)=O)C(=O)[C@@]2(O)C(O)=C3C(=O)c4c(O)ccc(CNC(=O)c5ccccn5)c4C[C@H]3C[C@@H]12 | – | – | MIC (S. aureus RN450; [3]): < 4 µg/mL; MIC (E. coli mL308 225; [4]): > 4 µg/mL
CN(C)[C@@H]1C(O)=C(C(N)=O)C(=O)[C@@]2(O)C(O)=C3C(=O)c4c(O)ccc(CNC(=O)c5cnoc5)c4C[C@H]3C[C@@H]12 | – | – | MIC (S. aureus RN450; [3]): < 4 µg/mL; MIC (E. coli mL308 225; [4]): > 4 µg/mL
CC(NNC(N)=O)c1ccc(O)c2c1C[C@H]1C[C@H]3[C@H](N(C)C)C(O)=C(C(N)=O)C(=O)[C@@]3(O)C(O)=C1C2=O (stereo partly drawn) | – | – | MIC (S. aureus RN450; [3]): < 4 µg/mL; MIC (E. coli mL308 225; [4]): > 4 µg/mL
CN(C)[C@@H]1C(O)=C(C(N)=O)C(=O)[C@@]2(O)C(O)=C3C(=O)c4c(O)c(CNC(=O)C5CC5)cc(-c5ccc(C(C)(C)C)cc5)c4C[C@H]3C[C@@H]12 | – | – | MIC (S. aureus RN450; [3]): < 4 µg/mL; MIC (E. coli mL308 225; [4]): < 4 µg/mL
CC(C)CN(Cc1ccc(O)c2c1C[C@H]1C[C@H]3[C@H](N(C)C)C(O)=C(C(N)=O)C(=O)[C@@]3(O)C(O)=C1C2=O)CC(C)C | – | – | MIC (S. aureus RN450; [3]): < 4 µg/mL; MIC (E. coli mL308 225; [4]): < 4 µg/mL
CN(C)[C@@H]1C(O)=C(C(N)=O)C(=O)[C@@]2(O)C(O)=C3C(=O)c4c(O)ccc(C(=O)O)c4C[C@H]3C[C@@H]12 | – | – | MIC (S. aureus RN450; [3]): > 4 µg/mL; MIC (E. coli mL308 225; [4]): > 4 µg/mL
CC(CF)N(C)Cc1cc(N(C)C)c2c(c1O)C(=O)C1=C(O)[C@]3(O)C(=O)C(C(N)=O)=C(O)[C@@H](N(C)C)[C@@H]3C[C@@H]1C2 (stereo partly drawn) | – | – | MIC (S. aureus RN450; [1]): < 4 µg/mL; MIC (E. coli mL308 225; [2]): > 4 µg/mL
CNC(=O)Oc1ccc(-c2ccc(O)c3c2C[C@H]2C[C@H]4[C@H](N(C)C)C(O)=C(C(N)=O)C(=O)[C@@]4(O)C(O)=C2C3=O)cc1 | – | – | MIC (S. aureus RN450; [1]): < 4 µg/mL; MIC (E. coli mL308 225; [2]): < 4 µg/mL
CCOP(=O)(OCC)C(Nc1cc(N(C)C)c2c(c1O)C(=O)C1=C(O)[C@]3(O)C(=O)C(C(N)=O)=C(O)[C@@H](N(C)C)[C@@H]3C[C@@H]1C2)c1ccccc1 (stereo partly drawn) [AA] | – | – | MIC (S. aureus RN450; [5]): > 4 µg/mL; MIC (E. coli mL308 225; [6]): > 4 µg/mL
CN(C)[C@@H]1C(O)=C(C(N)=O)C(=O)[C@@]2(O)C(O)=C3C(=O)c4c(O)ccc(-c5ccc(F)cc5F)c4C[C@H]3C[C@@H]12 [AB] | < 4 | > 4 | –
CN(C)[C@@H]1C(O)=C(C(N)=O)C(=O)[C@@]2(O)C(O)=C3C(=O)c4c(O)cccc4/C(=C\c4ccc(C(F)(F)F)cc4)[C@H]3[C@H](O)[C@@H]12 [AC] | < 4 | > 4 | –
CN(C)C(=O)c1cccc(-c2ccc(O)c3c2C[C@H]2C[C@H]4[C@H](N(C)C)C(O)=C(C(N)=O)C(=O)[C@@]4(O)C(O)=C2C3=O)c1 [AD] | < 4 | > 4 | –
CN(C)c1cc(NS(=O)(=O)c2ccccc2)c(O)c2c1C[C@H]1C[C@H]3[C@H](N(C)C)C(O)=C(C(N)=O)C(=O)[C@@]3(O)C(O)=C1C2=O [AE] | < 4 | < 4 | –
CN(C)c1cc(-c2ccc(Cl)cc2)c(O)c2c1C[C@H]1C[C@H]3[C@H](N(C)C)C(O)=C(C(N)=O)C(=O)[C@@]3(O)C(O)=C1C2=O [AF] | < 4 | > 4 | –
CCOc1ccccc1-c1ccc(O)c2c1C[C@H]1C[C@H]3[C@H](N(C)C)C(O)=C(C(N)=O)C(=O)[C@@]3(O)C(O)=C1C2=O [AG] | < 4 | > 4 | –

SMILES | MIC (S. aureus RN450; [7]) [µg/mL] | MIC (E. coli mL308 225; [8]) [µg/mL] | further results
CN(C)c1cc(-c2cccc(N)c2)c(O)c2c1C[C@H]1C[C@H]3[C@H](N(C)C)C(O)=C(C(N)=O)C(=O)[C@@]3(O)C(O)=C1C2=O [AH] | < 4 | > 4 | –
CN(C)c1cc(-c2ccc(Cl)c(Cl)c2)c(O)c2c1C[C@H]1C[C@H]3[C@H](N(C)C)C(O)=C(C(N)=O)C(=O)[C@@]3(O)C(O)=C1C2=O [AI] | < 4 | > 4 | –
CN(C)c1cc(C#Cc2cccc(O)c2)c(O)c2c1C[C@H]1C[C@H]3[C@H](N(C)C)C(O)=C(C(N)=O)C(=O)[C@@]3(O)C(O)=C1C2=O [AJ] | < 4 | > 4 | –
CN(C)CC#Cc1ccc(O)c2c1C[C@H]1C[C@H]3[C@H](N(C)C)C(O)=C(C(N)=O)C(=O)[C@@]3(O)C(O)=C1C2=O [AL] | < 4 | < 4 | –
CN(C)[C@H]1C(O)=C(C(N)=O)C(=O)[C@@]2(O)C(O)=C3C(=O)c4c(O)ccc(-c5cccc(N)c5)c4C[C@H]3C[C@@H]12 [AM] | < 4 | < 4 | –
CN(C)c1cc(C#CC2(O)CCCCC2)c(O)c2c1C[C@H]1C[C@H]3[C@H](N(C)C)C(O)=C(C(N)=O)C(=O)[C@@]3(O)C(O)=C1C2=O [AN] | > 4 | > 4 | –
CC(=O)c1cccc(-c2ccc(O)c3c2C[C@H]2C[C@H]4[C@H](N(C)C)C(O)=C(C(N)=O)C(=O)[C@@]4(O)C(O)=C2C3=O)c1 [AO] | < 4 | > 4 | –
CN(C)c1cc(-c2ccc(C(=O)O)cc2)c(O)c2c1C[C@H]1C[C@H]3[C@@H](N(C)C)C(O)=C(C(N)=O)C(=O)[C@@]3(O)C(O)=C1C2=O [AP] | > 4 | > 4 | –
CN(C)C(=O)/C=C/c1ccc(O)c2c1C[C@H]1C[C@H]3[C@H](N(C)C)C(O)=C(C(N)=O)C(=O)[C@@]3(O)C(O)=C1C2=O [AQ] | < 4 | < 4 | –
CN(C)[C@@H]1C(O)=C(C(N)=O)C(=O)[C@@]2(O)C(O)=C3C(=O)c4c(ccc(CN)c4O)C[C@H]3C[C@@H]12 [AR] | < 4 | < 4 | –
COc1ccc(OC(=O)Nc2ccc3c(c2O)C(=O)C2=C(O)[C@]4(O)C(=O)C(C(N)=O)=C(O)[C@@H](N(C)C)[C@@H]4C[C@@H]2C3)cc1 [AS] | – | – | MIC (S. aureus RN450; [5]): < 4 µg/mL; MIC (E. coli mL308 225; [6]): > 4 µg/mL
CN(C)[C@@H]1C(O)=C(C(N)=O)C(=O)[C@@]2(O)C(O)=C3C(=O)c4c(ccc(NC(=O)Nc5cccc6ccccc56)c4O)C[C@H]3C[C@@H]12 [AU] | < 4 | > 4 | –
Cc1ccc(OC(=O)Nc2ccc(O)c3c2C[C@H]2C[C@H]4[C@H](N(C)C)C(O)=C(C(N)=O)C(=O)[C@@]4(O)C(O)=C2C3=O)cc1 [AV] | – | – | MIC (S. aureus RN450; [5]): < 4 µg/mL; MIC (E. coli mL308 225; [6]): < 4 µg/mL
C=C(Cl)c1ccc(O)c2c1C[C@H]1C[C@H]3[C@H](N(C)C)C(O)=C(C(N)=O)C(=O)[C@@]3(O)C(O)=C1C2=O [AW] | < 4 | < 4 | –
CCOC(=O)/C(I)=C/C(=C/c1ccc(O)c2c1C[C@H]1C[C@H]3[C@H](N(C)C)C(O)=C(C(N)=O)C(=O)[C@@]3(O)C(O)=C1C2=O)C(=O)OCC [AX] | > 4 | > 4 | –
CN(C)[C@@H]1C(O)=C(C(N)=O)C(=O)[C@@]2(O)C(O)=C3C(=O)c4c(O)ccc(/C=C/c5ccc(N)cc5)c4C[C@H]3C[C@@H]12 [AY] | < 4 | > 4 | –
C[C@H]1c2cccc(O)c2C(=O)C2=C(O)[C@]3(O)C(=O)C(C(N)=O)=C(O)[C@@H](N(C)C)[C@@H]3[C@@H](O)[C@@H]21 [A] | < 4 | < 4 | –
CN(C)c1cc(C#Cc2ccccn2)c(O)c2c1C[C@H]1C[C@H]3[C@H](N(C)C)C(O)=C(C(N)=O)C(=O)[C@@]3(O)C(O)=C1C2=O [BA] | > 4 | > 4 | –
CN(C)[C@@H]1C(O)=C(C(N)=O)C(=O)[C@@]2(O)C(O)=C3C(=O)c4c(O)ccc(C#CCCCC#N)c4C[C@H]3C[C@@H]12 [BB] | < 4 | < 4 | –
COc1ccc(C=O)cc1-c1ccc(O)c2c1C[C@H]1C[C@H]3[C@H](N(C)C)C(O)=C(C(N)=O)C(=O)[C@@]3(O)C(O)=C1C2=O [BC] | < 4 | < 4 | –
CC(O)C#Cc1ccc(O)c2c1C[C@H]1C[C@H]3[C@H](N(C)C)C(O)=C(C(N)=O)C(=O)[C@@]3(O)C(O)=C1C2=O (stereo partly drawn) [BD] | < 4 | < 4 | –
CN(C)[C@@H]1C(O)=C(C(N)=O)C(=O)[C@@]2(O)C(O)=C3C(=O)c4c(O)ccc(C#Cc5ccc(N)cc5)c4C[C@H]3C[C@@H]12 [BE] | < 4 | > 4 | –
